{
  "source": "patent US20220105096A1",
  "about": "“INHIBITORS OF HUMAN IMMUNODEFICIENCY VIRUS REPLICATION” (ViiV HEALTHCARE UK (NO.5) LIMITED, priority 2019, published 2022)",
  "key": {"[1]": {"assay": "Metabolism in human liver microsomes", "format": "in vitro ADME", "details": "pH 7.4, 1 μM compound, 1 mg/mL microsomes, NADPH, 37° C., read-out: Human liver microsome T1/2", "protocol": "(§1) Liver microsomes from human, rat dog and monkey were thawed and diluted to a final concentration of 1 mg/mL in 100 mM potassium phosphate buffer (pH 7.4). Test compounds and controls were prepared at 100× final concentration of 1 μM in 1:1 acetonitrile:water (v/v) and aliquoted into microsomal mixture. The mixture was preincubated at 37° C. in a shaking water bath for 10 minutes. The incubations were performed in duplicate. Three controls were included in the incubations; warfarin, phenacetin, and verapamil. After the preincubation, the reaction was initiated with NADPH at a final concentration of 1 mM. At 0, 5, 15, 30, 45 and 60 minutes, 25 μL of sample was removed and quenched with 300 μL of acetonitrile containing internal standard (Telmisartan). The samples were vortexed for 5 minutes at 1200 rpm and then centrifuged at 4000 rpm for 10 min. A 100 μL aliquot of supernatant was diluted three-fold with water and injected on an Exion LC 4500 Triple Quad LC-MS/MS system. Results were reported as a percentage of parent remaining and was calculated from peak area ratios of test compound remaining after at each time point and compared to time zero incubation."}, "[2]": {"assay": "Allometric scaling of pre-clinical PK parameters to predict dose in human", "protocol": "Human dose predictions were performed using Phoenix WinNonlin (v 8.0) software and Microsoft Excel using the ModelRisk add-in for population modeling. Human IV parameters (Vc, Ka, K12, K21, KeI) were determined using Mean Residence Time (MRT) scaling from preclinical species (mouse, rat, dog and cyno). For this calculation, each animal of the relevant PK studies was modeled independently. Absorption (Ka) was determined by deconvolution (PO) or from the half-life (SC) in preclinical species (Ka=LN(2)/t1/2). The predicted human dose for PO and SC is calculated with consideration of human variability and is calculated to cover 95% of the human population."}, "[3]": {"assay": "Pharmacokinetic parameters in vivo, mouse", "design": "species or system male CD1 mice", "details": "male, CD1, plasma", "protocol": "(§2) PK was investigated in male CD1 mice, Wistar Han Rats, Cynomolgus monkeys, and Beagle Dogs. Two groups of animals (N=3 per group) received test compound either as an intravenous (IV) dose (1 mg/kg) or by oral gavage (5 mg/kg solution and suspension). Drug was formulated in 90% PEG 400, 10% ethanol for IV administration and in 90% PEG400, 5% ethanol for PO administration. Blood samples were collected at 0.167, 0.25, 0.5, 0.75, 1, 2, 3, 5, 7, 24, 48, 72 and 96 h post dose for IV; 0.25, 0.5, 0.75, 1, 2, 3, 5, 7, 24, 48, 72 and 96 h post dose for oral. Blood samples were collected into K3EDTA tubes and centrifuged at 1500 to 2000×g to obtain plasma. Plasma samples were stored at −20° C. until analysis by LC-MS/MS. All […] samples were injected on an Exion LC 4500 Triple Quad™ LC-MS/MS system. The analytical column used was a Phenomenex C18 (C18, 4.6 mm×50 mm, 5 μm) maintained at room temperature. Mobile Phase A consisted of 0.1% (v/v) formic acid in MilliQ water. Mobile Phase B consisted of 100% methanol. The flow rate was 1 mL/min. […] All LC-MS/MS analysis parameters are captured electronically in the raw data files. The PK parameters were obtained by non-compartmental analysis of plasma concentration vs time data (Phoenix WinNonlin v8). The peak concentration (Cmax) and time for Cmax (Tmax) were recorded directly from experimental observations. The area under the curve from time zero to the last sampling time [AUC0-T] and the area under the curve from time zero to infinity [AUCINF] were calculated using a combination of linear and log trapezoidal summations. The total plasma clearance (CLTp), steady-state volume of distribution (Vss), apparent elimination half-life (T-HALF), and mean residence time (MRT) were estimated after IV administration. Estimations of AUC and T-HALF were made using a minimum of three timepoints with quantifiable concentrations. The absolute oral bioavailability (F) was estimated as the ratio of dose-normalized AUC values following oral and IV doses."}, "[4]": {"assay": "Pharmacokinetic parameters in vivo, monkey", "design": "species or system Cynomolgus monkeys", "protocol": "as §2"}, "CYP2B6": {"test_system": "CYP2B6", "assay": "Cytochrome P450 (CYP2B6) induction in cryopreserved human hepatocytes", "format": "cell-based", "details": "hepatocytes from three individual donors, 0.12 to 30 μM, 48 hours", "protocol": "Following the guidance of the FDA (“In Vitro Metabolism- and Transporter-Mediated Drug-Drug Interaction Studies Guidance for Industry”), the potential of Example 1 and Example 60.2 to induce CYP2B6 expression was tested using hepatocytes from the same three individual donors (rather than pooled donors), and changes in enzyme mRNA levels were evaluated using the “fold-change method”. In this test a fold-change in mRNA levels less than 2-fold is considered a negative finding, while a change ≥2-fold is considered a positive finding.\nCompounds were tested in a CYP induction assay using inducible cryopreserved human primary hepatocytes from three donors to determine the potential to cause induction (as measured by an increase in mRNA transcription) of CYP2B6. […] At the end of the incubation, the integrity of cell monolayers, cell density and viability were evaluated to assess cytotoxicity effects. […] It was then used in reverse transcription polymerase chain reactions (RT-PCR) to quantify the amount of specific mRNA species encoding human CYP3A4, CYP2B6, and CYP1A2 genes.\nThe induction potential of test compounds and controls was compared to known CYP2B6 inducer Phenobarbital (1000 μM). The results of this assay are expressed as fold induction. […] The cytotoxicity was also assessed in parallel to avoid false positive CYP induction results due to cytotoxicity. […]"}, "[5]": {"assay": "Metabolism in monkey liver microsomes", "format": "in vitro ADME", "protocol": "as §1"}, "[6]": {"details": "cynomolgus monkey, plasma, Monkey, IV 1 mg/kg"}},
  "data": [
    {"compound": "Cn1nc(NS(C)(=O)=O)c2c(Cl)ccc(-n3c([C@H](Cc4cc(F)cc(F)c4)NC(=O)Cn4nc(C(F)F)c5c4C(F)(F)[C@@H]4C[C@H]54)nc4nc(OCCC(C)(F)F)ccc4c3=O)c21", "note": "(atropisomer, axis not shown; (P)) [Example 1, N—((S)-1-((3P)-3-(4-chloro-1-methyl-3-(methylsulfonamido)-1H-indazol-7-yl)-7-(3,3-difluorobutoxy)-4-oxo-3,4-dihydropyrido[2,3-d]pyrimidin-2-yl)-2-(3,5-difluorophenyl)ethyl)-2-((3bS,4aR)-3-(difluoromethyl)-5,5-difluoro-3b,4,4a,5-tetrahydro-1H-cyclopropa[3,4]cyclopenta[1,2-c]pyrazol-1-yl)acetamide]", "values": [
      {"measurement": "half-life at 1 μM", "setting": "[1]", "result": "> 2", "unit": "h"},
      {"measurement": "predicted once-daily oral dose in human lower than for Example 60.2", "setting": "[2]; Example 1 versus Example 60.2", "result": 15, "unit": "fold"},
      {"measurement": "predicted Q1M SC dose in human lower than for Example 60.2", "setting": "[2]; from SC rat apparent half-lives and predicted human clearance", "result": 20, "unit": "fold"},
      {"measurement": "predicted human QD PO dose", "setting": "[2]; once-daily oral dose to maintain efficacious plasma concentration, covers 95% of human population", "result": "less than 5 mg"},
      {"measurement": "clearance", "setting": "[3]; IV 1 mg/kg", "result": 1.77, "unit": "mL/min/kg"},
      {"measurement": "half-life", "setting": "[3]; IV 1 mg/kg", "result": 7.8, "unit": "h"},
      {"measurement": "Vd", "setting": "[3]; IV 1 mg/kg, read-out: Vss", "result": 1.14, "unit": "L/kg"},
      {"measurement": "bioavailability", "setting": "[3]; oral gavage 5 mg/kg vs IV 1 mg/kg", "result": 76.7, "unit": "%"},
      {"measurement": "clearance", "setting": "[4]; [6]", "result": 8.8, "unit": "mL/min/kg"},
      {"measurement": "half-life", "setting": "[4]; [6]", "result": 4.2, "unit": "h"},
      {"measurement": "Vd", "setting": "[4]; cynomolgus monkey, plasma, Monkey, IV 1 mg/kg, read-out: Vss", "result": 1.73, "unit": "L/kg"},
      {"measurement": "bioavailability", "setting": "[4]; cynomolgus monkey, plasma, Monkey, oral gavage 5 mg/kg solution vs IV 1 mg/kg", "result": 7.92, "unit": "%"},
      {"measurement": "half-life in circulation higher than Example 60.2", "setting": "[4]; monkey", "result": "three-fold"},
      {"measurement": "clearance improved relative to Example 60.2", "setting": "[4]; monkey, IV", "result": 2.5, "unit": "fold"},
      {"measurement": "CYP2B6 induction finding (mRNA fold-change method)", "setting": "CYP2B6", "result": "negative finding (a fold-change in mRNA levels less than 2-fold is considered a negative finding)"},
      {"measurement": "stability in monkey liver microsomes relative to Example 60.2", "setting": "[5]; Example 1 versus Example 60.2", "result": "at least two times more stable"},
      {"measurement": "half-life at 1 μM", "setting": "[5]; monkey, liver microsomes, pH 7.4, 1 μM compound, 1 mg/mL microsomes, NADPH, 37° C., read-out: Monkey liver microsome T1/2", "result": "> 2", "unit": "h"}
    ]}
  ]
}
